Source: article PMC10223997, “Screening and Elucidation of Chemical Structures of Novel Mammalian α-Glucosidase Inhibitors Targeting Anti-Diabetes Drug from Herbals Used by E De Ethnic Tribe in Vietnam” (Pharmaceuticals, 2023)
Values after ≈ are worked out from the molar mass of the structure shown.

Biological target: Rat α-Glucosidase
Experiment: Alpha-glucosidase inhibition assay (rat intestinal acetone powder, pNPG substrate)
Format: biochemical
Details: for IC50 / maximum inhibition: purified compounds and acarbose, Figure 2
Protocol: • - Enzyme solution preparation: Enzyme solution was then sonicated 24 times, each for 12 s at 4 °C, and then centrifuged for 20 min at 10,000× g, 4 °C. The residue part was re-suspended twice with 15 mL of the same buffer (0.1 mol/L NPB, pH 7), as described above. All supernatants were mixed together and dialyzed for a half day at 4–6 °C to obtain the enzyme solution, which was then used for further analyses. • - Reaction and estimation of inhibitory activity: The enzyme inhibition assay was done according to Kwon et al. 2006 [40] with slight modification. The enzyme solution (50 µL) and the sample solution (50 µL) were mixed in 150 μL of 0.1 mol/L NPB, pH 7. This mixture was pre-incubated at 37 °C for 15 min. The reaction was started by adding 50 μL of the substrate pNPG (10 mmol/L) into this mixture solution, and this duration was kept at 37 °C for 30 min, then 325 μL of 1 mol/L Na2CO3 solution were added to terminate the reaction. This absorption of the final solution was measured at 410 nm (namely, E) using a UV spectrometer (UV-2550, Shimadzu, Japan) to estimate the enzymatic activity, and the control experiment was also conducted similarly, but instead of the inhibitor solution, 50 μL 0.1 mol/L potassium phosphate buffer (pH 7) and the absorbance was measured at 410 nm (namely, C). The inhibitory effect (%) was calculated using the equation below:
α-Glucosidase inhibition (%) = (C − E)/C × 100, where E denoted the optical density of the solution reaction in the presence of both α-glucosidase and the sample, and C is the optical density of the reaction blank.

IC50 [µg/mL] | maximum inhibition | Inhibition of Rat α-Glucosidase % (MeOH extracts of medicinal plants and acarbose, Table 1) [%] | Inhibition of Rat α-Glucosidase IC50 (MeOH extracts of medicinal plants and acarbose, listed as Acarbose) [µg/mL] | Inhibition of Rat α-Glucosidase IC50 (MeOH extracts of medicinal plants and acarbose, listed as acarbose) [µg/mL] | SMILES
191 (≈ 0.426 mM) | 93% | – | – | – | C[C@@H]1O[C@@H](Oc2cc3c(=O)oc4c(O)c(O)cc5c(=O)oc(c2O)c3c45)[C@H](O)[C@H](O)[C@H]1O [EWC, eschweilenol C]
973 (≈ 5.72 mM) | 80% | – | – | – | O=C(O)c1cc(O)c(O)c(O)c1 [GA, gallic acid]
– | 84–85% | – | – | – | Oc1cc(O)c2c(c1)O[C@H](c1ccc(O)c(O)c1)[C@H](O)C2 [ECC, (−)-epicatechin]
– | 84–85% | 92 | 310 | 309 | C[C@H]1O[C@H](O[C@H]2[C@H](O)[C@@H](O)[C@@H](O[C@H]3[C@H](O)[C@@H](O)C(O)O[C@@H]3CO)O[C@@H]2CO)[C@H](O)[C@@H](O)[C@@H]1N[C@H]1C=C(CO)[C@@H](O)[C@H](O)[C@H]1O (stereo partly drawn) [AC, acarbose, reference compound]
